# According to patent US8053197B2, “Methods for detecting and treating autoimmune disorders” (Oregon Health & Science University, priority 2004, dated 2011):
# Tests used:
# [1] = test system: CD4+CD25− responder cells; assay: Suppressive activity of CD4+CD25+ T cells from treated mice on CD4+CD25− responder cells (I50); format: in vivo, C57BL/6 mice
# Experimental: FIG. 7 illustrates the suppressive activity of CD4+CD25+ T cells recovered from placebo, E2-treated and pregnant mice was measured by their ability to suppress the growth of CD4+CD25−responder cells. Varying numbers of sorted CD4+CD25+ Treg cells from placebo-treated, E2-treated, and pregnant mice were co-cultured in triplicate for 3 days without (0:1 ratio) or with a constant number (5×10^4) of CD4+CD25−responder cells and APC (10^5) from naïve donors, and 0.5 μg/ml anti-CD3 mAb. Responder cells were also cultured alone (1:0 ratio). Proliferation was monitored by uptake of [^3H]-thymidine (1 μCi/well) for the last 12 h of culture. Data are representative of three independent experiments. *I50 values (% CD4+CD25+ cells that could inhibit the proliferation of anti-CD3-activated CD4+CD25−responder cells by 50%) represent the average of two or more independent experiments.
# Female C57BL/6 mice were pretreated with 17β-estradiol (E2) or placebo for 7 days prior to challenge with MOG-35-55 peptide/CFA/PM to induce EAE. At the peak of EAE in the placebo group (day 15 after induction), cells were harvested from both the placebo-treated mice (score=4.5-5) and E2-treated mice (score=0). Cell mixtures were combined within each treatment group. […]
# Foxp3 = Foxp3 expression in CD4+ T cells of E2-treated, MOG-35-55 immunized mice at peak of EAE; format: in vivo, C57BL/6 mice; settings: peak of disease
# Experimental: FIG. 2 is a graph illustrating real-time RT-PCR analysis of Foxp3. C57BL/6 and Esr^−/− mice were implanted with placebo or 2.5 mg E2 pellets and immunized 1 week later with 200 μg MOG-35-55 peptide in CFA with pertussis toxin on days 0 and +2. At the peak of clinical disease, mice were sacrificed and splenocytes sorted for CD4+ cells. cDNA was prepared and analyzed by real-time PCR to determine Foxp3 mRNA levels. Data are presented as Foxp3 relative to housekeeping gene L32. Error bars are standard deviation of triplicate samples.
# Control lane is lysate of 293T cells transfected with Foxp3 cDNA. The CD25+ fraction (among CD4+) of each sample is noted above bars.
# Female naïve or syngeneic pregnant (19 days) C57BL/6 mice were purchased from Jackson Laboratory (Bar Harbor, Me.). Estrogen receptor alpha knockout (Esrl^−/−) mice were purchased from Taconic (Germantown, N.Y.). Most experiments represent cells pooled from at least five mice per experimental condition.
# For E2 therapy, a 3 mm pellet containing 2.5 mg or 15 mg (as indicated) 17β-estradiol (Innovative Research of America, Sarasota, Fla.) was implanted s.c. (dorsally) 7 days prior to immunization (EAE) or 14 days prior to analysis of naïve mice. These pellets are designed to release their contents at a constant rate over 60 days. Control animals were implanted with pellets containing saline. Serum levels of E2 were monitored by RIA. […]
# For real-time RT-PCR analysis, total RNA was prepared using the Total RNeasy kit (Qiagen, Germantown, Md.) and cDNA was prepared using random hexamer primers (Invitrogen, Grand Island, N.Y.). Foxp3 message expression was quantified using the ABI 7000 Real-Time PCR System (Applied Biosystems, Foster City, Calif.). Amplification was performed in a total volume of 25 μl for 40 cycles and products were detected using SYBR Green I dye (Molecular Probes, Eugene, Oreg.). Samples were run in triplicate and relative expression level was determined by normalization to L32 with results presented as relative expression (RE) units. […]
smiles,measurement,setting,value
"C[C@]12CC[C@@H]3c4ccc(O)cc4CC[C@H]3[C@@H]1CC[C@@H]2O [E2, 17β-estradiol]",I50 of Treg suppressive activity,"[1]; E2-protected mice challenged for EAE, day 15, control mice with EAE 30%",2.5%
same,average I50 value for CD4+CD25+ Treg cells,"[1]; Treg from E2-treated mice without EAE, naïve mice 22.4±[…], n=3 experiments",14.7±0.3%
same,Foxp3 mRNA levels in CD4+ T cells increased,"Foxp3; Esr1−/− mice lacking estrogen receptor-α, MOG-35-55 immunized",not
same,"FoxP3 protein expression and CD25+ number in E2-treated mice, Esr1−/− versus wild-type",Foxp3; western blot and flow cytometry,substantially lower
same,Foxp3 mRNA levels in CD4+ T cells,"Foxp3; wild-type C57BL/6 mice, MOG-35-55 immunized, versus placebo",significantly increased
